The values below come from ChEMBL document CHEMBL5465560, “Selectivity Literature for EUbOPEN Chemogenomic Library” (2024).

Test [1] concerns the target Tyrosine-protein kinase BTK (Homo sapiens, UniProt Q06187). The note with it: at 10 µM.
Test [2] has as its target T1, Serine/threonine-protein kinase Nek3 (Homo sapiens) (UniProt P51956).
T1 sequence (whole entry): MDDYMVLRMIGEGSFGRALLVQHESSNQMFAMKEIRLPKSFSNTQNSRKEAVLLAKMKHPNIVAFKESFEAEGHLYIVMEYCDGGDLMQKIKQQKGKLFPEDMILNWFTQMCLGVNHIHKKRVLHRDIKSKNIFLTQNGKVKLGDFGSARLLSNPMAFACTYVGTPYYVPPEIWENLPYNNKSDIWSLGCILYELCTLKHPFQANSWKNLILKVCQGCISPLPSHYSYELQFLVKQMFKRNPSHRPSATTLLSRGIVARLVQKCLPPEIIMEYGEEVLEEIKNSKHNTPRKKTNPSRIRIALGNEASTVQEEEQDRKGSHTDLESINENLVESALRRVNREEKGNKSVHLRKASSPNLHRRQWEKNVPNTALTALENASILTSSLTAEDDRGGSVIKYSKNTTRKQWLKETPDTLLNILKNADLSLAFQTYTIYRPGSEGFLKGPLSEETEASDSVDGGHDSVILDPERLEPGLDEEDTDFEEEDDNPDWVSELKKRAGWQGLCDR
The test can be described thus: Selectivity interaction (KinomeScan (DiscoverX)) EUB0001079a NEK3. The note with it: at 1 µM.

In test [3] the target is T2, Serine/threonine-protein kinase Nek5 (Homo sapiens) (UniProt Q6P3R8).
T2 sequence (whole entry): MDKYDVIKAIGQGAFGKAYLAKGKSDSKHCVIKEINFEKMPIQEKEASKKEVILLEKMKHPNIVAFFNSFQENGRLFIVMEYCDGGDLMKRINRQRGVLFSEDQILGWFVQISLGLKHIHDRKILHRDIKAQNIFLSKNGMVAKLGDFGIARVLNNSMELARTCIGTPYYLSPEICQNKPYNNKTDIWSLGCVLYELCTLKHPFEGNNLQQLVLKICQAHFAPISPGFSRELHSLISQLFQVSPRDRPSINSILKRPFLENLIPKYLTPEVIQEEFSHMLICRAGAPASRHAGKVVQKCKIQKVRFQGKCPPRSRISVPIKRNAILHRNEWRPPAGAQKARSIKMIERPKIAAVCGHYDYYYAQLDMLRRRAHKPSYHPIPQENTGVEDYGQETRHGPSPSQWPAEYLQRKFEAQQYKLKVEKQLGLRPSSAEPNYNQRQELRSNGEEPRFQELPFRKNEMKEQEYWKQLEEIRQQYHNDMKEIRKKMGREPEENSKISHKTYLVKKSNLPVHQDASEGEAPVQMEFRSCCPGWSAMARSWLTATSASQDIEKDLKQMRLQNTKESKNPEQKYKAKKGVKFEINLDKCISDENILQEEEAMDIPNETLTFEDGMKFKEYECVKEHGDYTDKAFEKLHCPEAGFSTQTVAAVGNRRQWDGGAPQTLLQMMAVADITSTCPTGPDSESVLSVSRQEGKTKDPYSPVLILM
Conditions: at 10 µM.

Test [4] deals with Protein arginine N-methyltransferase 5 (Homo sapiens, UniProt O14744). Kind of test: Selectivity interaction (Transferase panel (protein, RNA, and DNA methyltransferases. and EP300 (acetyltransferase))) EUB0000270b PRMT5.
The target of test [5] is T3, Bone morphogenetic protein receptor type-2 (Homo sapiens) (UniProt Q13873).
T3 sequence (whole entry): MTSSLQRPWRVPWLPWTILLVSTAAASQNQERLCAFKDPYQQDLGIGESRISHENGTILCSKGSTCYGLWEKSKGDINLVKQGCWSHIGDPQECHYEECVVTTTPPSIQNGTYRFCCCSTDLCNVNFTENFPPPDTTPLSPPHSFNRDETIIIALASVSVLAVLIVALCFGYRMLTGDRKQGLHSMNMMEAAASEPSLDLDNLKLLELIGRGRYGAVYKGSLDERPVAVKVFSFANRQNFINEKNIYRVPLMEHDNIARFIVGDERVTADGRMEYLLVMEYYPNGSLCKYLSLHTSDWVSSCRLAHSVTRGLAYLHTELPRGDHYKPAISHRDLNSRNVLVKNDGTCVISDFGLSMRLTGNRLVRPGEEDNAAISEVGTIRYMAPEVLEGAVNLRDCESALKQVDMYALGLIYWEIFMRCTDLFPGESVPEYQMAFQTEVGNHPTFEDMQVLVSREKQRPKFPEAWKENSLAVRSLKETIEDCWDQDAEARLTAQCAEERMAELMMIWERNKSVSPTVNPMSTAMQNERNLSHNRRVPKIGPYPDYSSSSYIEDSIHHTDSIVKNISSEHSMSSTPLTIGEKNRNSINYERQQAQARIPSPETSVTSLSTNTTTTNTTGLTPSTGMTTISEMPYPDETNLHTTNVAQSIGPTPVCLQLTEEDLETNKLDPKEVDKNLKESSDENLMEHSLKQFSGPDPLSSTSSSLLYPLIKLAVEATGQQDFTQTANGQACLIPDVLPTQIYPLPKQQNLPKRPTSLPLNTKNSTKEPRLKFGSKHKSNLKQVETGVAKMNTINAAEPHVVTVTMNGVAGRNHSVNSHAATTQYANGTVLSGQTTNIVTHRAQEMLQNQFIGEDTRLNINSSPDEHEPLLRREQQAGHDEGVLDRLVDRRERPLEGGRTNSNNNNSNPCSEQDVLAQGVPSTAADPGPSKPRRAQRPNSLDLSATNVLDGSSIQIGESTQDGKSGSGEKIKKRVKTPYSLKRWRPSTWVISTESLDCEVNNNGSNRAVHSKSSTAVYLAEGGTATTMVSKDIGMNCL
The test can be described thus: Selectivity interaction (Kinase panel (DSF assay)) EUB0001559a BMPR2.

In test [6] the target is Serine/threonine-protein kinase PAK 2 (Homo sapiens) (UniProt Q13177). The test can be described thus: Selectivity interaction (KinomeScan (DiscoverX)) EUB0000045b PAK2.
Test [7] addresses T4, Serine/threonine-protein kinase Nek2 (Homo sapiens) (UniProt P51955).
T4 sequence (whole entry): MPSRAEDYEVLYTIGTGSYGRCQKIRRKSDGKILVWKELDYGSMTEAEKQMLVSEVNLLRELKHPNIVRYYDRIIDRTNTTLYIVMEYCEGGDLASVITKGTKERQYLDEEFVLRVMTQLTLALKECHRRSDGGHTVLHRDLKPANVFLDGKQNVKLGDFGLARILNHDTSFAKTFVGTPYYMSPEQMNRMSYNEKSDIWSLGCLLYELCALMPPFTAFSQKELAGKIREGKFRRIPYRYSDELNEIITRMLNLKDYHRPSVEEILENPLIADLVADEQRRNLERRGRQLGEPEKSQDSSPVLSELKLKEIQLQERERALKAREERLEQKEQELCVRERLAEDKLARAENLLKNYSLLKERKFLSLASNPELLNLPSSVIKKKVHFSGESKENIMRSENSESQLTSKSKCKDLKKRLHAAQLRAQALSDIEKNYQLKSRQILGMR
Kind of test: Selectivity interaction (Upstate Kinase Profiler service (Millipore)) EUB0000056c NEK2. The note with it: at 1 µM.

Bounds are passed on as bounds.

Chain of Protein arginine N-methyltransferase 5 (O14744 whole entry): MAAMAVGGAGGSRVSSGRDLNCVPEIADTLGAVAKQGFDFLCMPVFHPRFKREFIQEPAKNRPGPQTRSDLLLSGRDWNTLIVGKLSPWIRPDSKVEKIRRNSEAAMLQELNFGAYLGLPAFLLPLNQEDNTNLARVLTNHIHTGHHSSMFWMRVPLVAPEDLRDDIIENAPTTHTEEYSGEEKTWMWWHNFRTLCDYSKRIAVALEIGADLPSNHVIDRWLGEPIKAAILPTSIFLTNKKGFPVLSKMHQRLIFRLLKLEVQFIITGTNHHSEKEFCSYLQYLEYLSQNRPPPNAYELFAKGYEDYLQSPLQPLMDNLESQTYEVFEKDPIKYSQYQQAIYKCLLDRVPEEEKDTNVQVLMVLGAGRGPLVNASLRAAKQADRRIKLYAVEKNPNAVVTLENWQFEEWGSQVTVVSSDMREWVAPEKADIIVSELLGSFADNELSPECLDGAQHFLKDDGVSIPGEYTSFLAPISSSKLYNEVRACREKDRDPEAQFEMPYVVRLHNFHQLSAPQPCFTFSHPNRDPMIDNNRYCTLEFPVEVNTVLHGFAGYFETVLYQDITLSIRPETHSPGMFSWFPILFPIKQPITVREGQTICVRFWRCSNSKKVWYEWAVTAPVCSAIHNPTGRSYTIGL
Chain of Serine/threonine-protein kinase PAK 2 (Homo sapiens) (Q13177 whole entry): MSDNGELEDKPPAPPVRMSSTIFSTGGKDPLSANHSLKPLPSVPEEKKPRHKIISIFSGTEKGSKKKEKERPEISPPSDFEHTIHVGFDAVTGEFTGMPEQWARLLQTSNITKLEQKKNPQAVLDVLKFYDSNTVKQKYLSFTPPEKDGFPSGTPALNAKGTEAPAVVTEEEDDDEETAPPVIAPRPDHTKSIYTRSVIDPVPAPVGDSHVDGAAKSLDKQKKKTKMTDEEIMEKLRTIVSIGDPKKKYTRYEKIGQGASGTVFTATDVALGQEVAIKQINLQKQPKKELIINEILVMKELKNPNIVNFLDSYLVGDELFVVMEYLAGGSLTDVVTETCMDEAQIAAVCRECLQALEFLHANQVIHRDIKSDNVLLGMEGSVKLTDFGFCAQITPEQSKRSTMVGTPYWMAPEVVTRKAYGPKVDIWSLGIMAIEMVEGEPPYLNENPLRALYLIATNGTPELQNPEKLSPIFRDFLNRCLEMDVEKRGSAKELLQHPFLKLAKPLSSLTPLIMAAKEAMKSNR
Chain of Tyrosine-protein kinase BTK (Q06187 whole entry): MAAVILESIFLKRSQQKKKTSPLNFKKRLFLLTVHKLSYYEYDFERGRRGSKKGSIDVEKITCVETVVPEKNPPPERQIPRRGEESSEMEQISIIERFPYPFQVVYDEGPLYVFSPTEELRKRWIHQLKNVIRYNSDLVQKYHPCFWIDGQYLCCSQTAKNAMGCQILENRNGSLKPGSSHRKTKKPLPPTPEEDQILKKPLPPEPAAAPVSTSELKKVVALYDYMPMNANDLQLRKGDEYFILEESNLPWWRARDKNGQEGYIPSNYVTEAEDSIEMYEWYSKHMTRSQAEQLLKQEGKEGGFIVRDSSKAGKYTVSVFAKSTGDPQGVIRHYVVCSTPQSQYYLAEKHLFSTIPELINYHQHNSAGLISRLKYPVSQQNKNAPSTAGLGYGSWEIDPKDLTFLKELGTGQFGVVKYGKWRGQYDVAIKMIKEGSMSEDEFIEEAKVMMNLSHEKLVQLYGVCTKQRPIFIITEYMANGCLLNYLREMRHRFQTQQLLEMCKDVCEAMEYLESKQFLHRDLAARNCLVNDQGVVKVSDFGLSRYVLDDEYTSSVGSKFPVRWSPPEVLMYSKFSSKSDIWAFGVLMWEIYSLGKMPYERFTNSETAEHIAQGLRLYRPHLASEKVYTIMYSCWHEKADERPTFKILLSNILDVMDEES

Consider `Cc1cc([C@@H](C)Nc2ccccc2C(=O)O)c2nc(N3CCOCC3)cc(=O)n2c1` [AZD-6482], for which, in test [1], the % of control was found to be 97%. Turning to `Nc1cnc(N2CCc3cc(S(=O)(=O)Nc4c(F)cc(Cl)cc4F)cc(N4CCCC4=O)c32)nc1` [TP-020n], in test [2], the % of control was 100%. `CCN(CC)CCCCNc1ncc2cc(-c3cc(OC)cc(OC)c3)c(NC(=O)NC(C)(C)C)nc2n1` gave a % of control in test [3] of 100%.

For the compound `Cc1cc(CN)cc(C)c1-c1ncn(C)c1-c1cncn1C`, the % activity in test [4] (at 1 µM) was greater than 90%; in test [4] (at 10 µM) it was greater than 80%. With `CN(C(=O)c1cnn2cccnc12)c1cc2c(cc1N1CCOCC1)C(=O)N(C[C@@H](F)C(C)(C)O)C2`, the dTM in test [5] was -0.3 K.

For `C=CC(=O)Nc1cc(-n2c(=O)ccc3cnc4ccc(-c5ccc(NS(C)(=O)=O)cc5)cc4c32)ccc1C`, the % of control in test [6] (at 1 µM) was 78%; in test [6] (at 10 µM) it was 92%. In the case of `Cc1ccc(-c2ccc3c(ccc4sc5c(c43)NC[C@@H](C)NC5=O)n2)cn1`, in test [7], the % of inhibition is -7%.
